Tested on: skin
Assay: Affymetrix microarray of skin, DBP-4 hr and analogs vs. untreated; gene selection by log-2 fold change, Wilcoxon, Kendall tau (Tables 8, 9)
Assay type: in vivo, mouse
[1] = Kendall tau, expression vs. output

## CCCCOC(=O)c1ccccc1C(=O)OCCCC [DBP, dibutylphthalate]
[1]
  Oxr1 NM_001130166_at Kendall: Yes
  Pgam2 NM_018870_at Kendall: No
  Pigyl NM_001082532_at Kendall: Yes
  Pparg NM_001127330_at Kendall: Yes
  Ppih NM_001110129_at Kendall: Yes
  Prg4 NM_021400_at Kendall: No
  Retnla NM_020509_at Kendall: No
  Rffl NM_001007465_at Kendall: Yes
  Rn18s NR_003278_at Kendall: No
  Rpl3l NM_025425_at Kendall: No
  Slc39a14 NM_001135151_at Kendall: Yes
  Sln NM_025540_at Kendall: No
  Smpx NM_025357_at Kendall: No
  Tnfrsf9 NM_001077508_at Kendall: Yes
  Tnfrsf9 NM_001077509_at Kendall: Yes
  Tnni1 NM_021467_at Kendall: No
  Trdn NM_029726_at Kendall: No
  Trf NM_133977_at Kendall: No
  Trp63 NM_001127259_at Kendall: Yes
  Trp63 NM_001127260_at Kendall: Yes
  Trp63 NM_001127262_at Kendall: Yes
  Trp63 NM_001127264_at Kendall: Yes
  Ttn NM_028004_at Kendall: No
  Wbp1 NM_001083922_at Kendall: Yes
  Wbp1 NM_001083923_at Kendall: Yes
  Wfdc2 NM_026323_at Kendall: No
  Zfp68 NM_001044747_at Kendall: Yes
  Zfp187 NM_001013786_at Kendall: Yes
  Zfp518b NM_001081144_at Kendall: Yes
  Zfp943 NM_001025373_at Kendall: Yes
Map3k8 NM_007746_at, DBP-4 hr vs. untreated
  Wilcoxon: No
Map3k8 NM_007746_at, Kendall tau coefficient
  Kendall: No
NM_007403_at, DBP-4 hr
  DBP Expression: Adam8: 8.84
NM_007464_at, DBP-4 hr
  DBP Expression: Birc3: 10.36
NM_007570_at, DBP-4 hr
  DBP Expression: Btg2: 10.63
NM_007679_at, DBP-4 hr
  DBP Expression: Cebpd: 10.17
NM_007706_at, DBP-4 hr
  DBP Expression: Socs2: 8.92
NM_007707_at, DBP-4 hr
  DBP Expression: Socs3: 9.48
NM_007746_at, DBP-4 hr
  DBP Expression: Map3k8: 8.72
NM_007780_at, DBP-4 hr
  DBP Expression: Csf2rb: 7.73
NM_007791_at, DBP-4 hr
  DBP Expression: Csrp1: 9.89
NM_007913_at, DBP-4 hr
  DBP Expression: Egr1: 12.15
NM_007974_at, DBP-4 hr
  DBP Expression: F2rl1: 9.38
NM_008009_at, DBP-4 hr
  DBP Expression: Fgfbp1: 11.47
NM_008125_at, DBP-4 hr
  DBP Expression: Gjb2: 8.85
NM_008152_at, DBP-4 hr
  DBP Expression: Gpr65: 5.48
NM_008176_at, DBP-4 hr
  DBP Expression: Cxcl1: 10.24
NM_008194_at, DBP-4 hr
  DBP Expression: Gyk: 9.63
NM_008230_at, DBP-4 hr
  DBP Expression: Hdc: 8.51
NM_008348_at, DBP-4 hr
  DBP Expression: Il10ra: 6.97
NM_008361_at, DBP-4 hr
  DBP Expression: Il1b: 7.67
NM_008372_at, DBP-4 hr
  DBP Expression: Il7r: 7.70
NM_008416_at, DBP-4 hr
  DBP Expression: Junb: 9.71
NM_008476_at, DBP-4 hr
  DBP Expression: Krt6a: 10.76
NM_008630_at, DBP-4 hr
  DBP Expression: Mt2: 13.23
NM_008871_at, DBP-4 hr
  DBP Expression: Serpine1: 8.32
NM_009140_at, DBP-4 hr
  DBP Expression: Cxcl2: 8.67
NM_009264_at, DBP-4 hr
  DBP Expression: Sprr1a: 10.84
NM_009285_at, DBP-4 hr
  DBP Expression: Stc1: 7.56
NM_009396_at, DBP-4 hr
  DBP Expression: Tnfaip2: 8.85
NM_009397_at, DBP-4 hr
  DBP Expression: Tnfaip3: 7.22
NM_009398_at, DBP-4 hr
  DBP Expression: Tnfaip6: 8.79
NM_009421_at, DBP-4 hr
  DBP Expression: Traf1: 6.04
NM_009834_at, DBP-4 hr
  DBP Expression: Ccrn4l: 10.05
NM_009851_at, DBP-4 hr
  DBP Expression: Cd44: 9.82
NM_009890_at, DBP-4 hr
  DBP Expression: Ch25h: 7.68
NM_009895_at, DBP-4 hr
  DBP Expression: Cish: 9.37
NM_010120_at, DBP-4 hr
  DBP Expression: Eif1a: 9.39
NM_010139_at, DBP-4 hr
  DBP Expression: Epha2: 8.60
NM_010220_at, DBP-4 hr
  DBP Expression: Fkbp5: 8.58
NM_010235_at, DBP-4 hr
  DBP Expression: Fosl1: 6.85
NM_010415_at, DBP-4 hr
  DBP Expression: Hbegf: 8.85
NM_010444_at, DBP-4 hr
  DBP Expression: Nr4a1: 10.34
NM_010493_at, DBP-4 hr
  DBP Expression: Icam1: 10.54
NM_010499_at, DBP-4 hr
  DBP Expression: Ier2: 10.73
NM_010516_at, DBP-4 hr
  DBP Expression: Cyr61: 9.37
NM_010591_at, DBP-4 hr
  DBP Expression: Jun: 9.74
NM_011019_at, DBP-4 hr
  DBP Expression: Osmr: 7.49
NM_011113_at, DBP-4 hr
  DBP Expression: Plaur: 7.68
NM_011227_at, DBP-4 hr
  DBP Expression: Rab20: 6.73
NM_011331_at, DBP-4 hr
  DBP Expression: Ccl12: 8.47
NM_011333_at, DBP-4 hr
  DBP Expression: Ccl2: 9.45
NM_011404_at, DBP-4 hr
  DBP Expression: Slc7a5: 10.00
NM_011498_at, DBP-4 hr
  DBP Expression: Bhlhe40: 10.32
NM_011574_at, DBP-4 hr
  DBP Expression: Cirh1a: 9.51
NM_011756_at, DBP-4 hr
  DBP Expression: Zfp36: 10.39
NM_013498_at, DBP-4 hr
  DBP Expression: Crem: 6.91
NM_013542_at, DBP-4 hr
  DBP Expression: Gzmb: 5.74
NM_013602_at, DBP-4 hr
  DBP Expression: Mt1: 12.73

— US20150307938A1, “METHOD TO IDENTIFY A NOVEL CLASS OF IMMUNOLOGIC ADJUVANTS” (Lancell, L.L.C., priority 2011, published 2015)
